The assay relates to HeLa. In words: Cytotoxicity against HeLa cells by MTT […] assay. It counts as functional, cell-based. The settings on record: Homo sapiens. In general terms: Formazan colour is commonly taken as a measure of viable cells.

Each structure is given as a SMILES string. pIC50: −log10 of the molar value.

As a reminder, the pIC50 is the negative decadic logarithm of the IC50, by convention in mol/L. Lower therefore signals a high IC50. Turning to `CO[C@H](c1ccc(O)cc1)[C@H]1NC(=O)[C@H](CCC(N)=O)N(C)C(=O)[C@H](CC(C)C)NC(=O)[C@@H](CCCNC(=N)N)NC(=O)[C@@H]([C@@H](C)O)NC(=O)[C@H](NC(=O)[C@H]2NC(=O)[C@H](C)[C@@H]2C)[C@@H](C)OC(=O)[C@H](C)N(C)C1=O` [CALLIPELTIN B], the pIC50 was 4.01.
With `CC(C)C[C@@H]1NC(=O)[C@@H](CCCNC(=N)N)NC(=O)[C@@H]([C@@H](C)O)NC(=O)[C@H](NC(=O)[C@H]2NC(=O)[C@H](C)[C@@H]2C)[C@@H](C)OC(=O)[C@H](C)N(C)C(=O)[C@@H](Cc2ccc(O)cc2)NC(=O)[C@H](CCC(N)=O)N(C)C1=O` [DESMETHOXYCALLIPELTIN B] the figure was 3.89.
